Target: T1, HDAC6 enzyme (Homo sapiens, UniProt Q9UBN7)
T1 construct: HDAC6 enzyme prepared by transducing full length HDAC6 gene into Sf-9 insect cells; GST; purchased SignalChem; host or cells: Sf-9 insect cells
T1 sequence (Q9UBN7 1-1215): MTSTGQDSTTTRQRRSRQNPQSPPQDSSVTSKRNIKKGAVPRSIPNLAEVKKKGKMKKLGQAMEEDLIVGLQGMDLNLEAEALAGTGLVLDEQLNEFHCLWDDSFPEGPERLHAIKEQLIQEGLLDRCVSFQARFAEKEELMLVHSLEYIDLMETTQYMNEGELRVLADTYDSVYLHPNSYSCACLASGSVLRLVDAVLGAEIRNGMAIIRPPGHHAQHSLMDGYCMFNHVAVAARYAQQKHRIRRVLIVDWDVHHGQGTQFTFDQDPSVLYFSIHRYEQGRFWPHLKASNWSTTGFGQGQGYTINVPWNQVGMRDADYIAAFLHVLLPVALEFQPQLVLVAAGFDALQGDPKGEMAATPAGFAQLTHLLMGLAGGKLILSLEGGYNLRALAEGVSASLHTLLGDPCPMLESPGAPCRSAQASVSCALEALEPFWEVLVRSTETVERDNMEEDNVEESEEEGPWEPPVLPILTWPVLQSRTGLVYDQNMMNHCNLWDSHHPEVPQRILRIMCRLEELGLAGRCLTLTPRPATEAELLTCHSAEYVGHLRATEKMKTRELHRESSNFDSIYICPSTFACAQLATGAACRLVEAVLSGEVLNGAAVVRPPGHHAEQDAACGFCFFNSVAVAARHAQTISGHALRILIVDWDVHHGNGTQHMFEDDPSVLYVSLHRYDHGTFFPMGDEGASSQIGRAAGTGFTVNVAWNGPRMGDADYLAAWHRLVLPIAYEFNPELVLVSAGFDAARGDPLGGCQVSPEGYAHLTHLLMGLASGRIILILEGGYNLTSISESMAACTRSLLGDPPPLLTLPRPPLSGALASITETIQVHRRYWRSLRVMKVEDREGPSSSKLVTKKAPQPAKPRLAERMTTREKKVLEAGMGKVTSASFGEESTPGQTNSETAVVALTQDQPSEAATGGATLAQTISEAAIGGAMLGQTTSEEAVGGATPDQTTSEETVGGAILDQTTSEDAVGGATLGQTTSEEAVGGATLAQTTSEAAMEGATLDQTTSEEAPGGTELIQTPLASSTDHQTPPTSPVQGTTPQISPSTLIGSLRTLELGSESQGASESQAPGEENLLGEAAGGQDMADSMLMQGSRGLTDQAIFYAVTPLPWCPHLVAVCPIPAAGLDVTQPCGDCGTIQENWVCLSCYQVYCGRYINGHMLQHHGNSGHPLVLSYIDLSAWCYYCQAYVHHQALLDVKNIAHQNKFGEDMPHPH
Experiment: HDAC6 enzyme inhibitory assay (HDAC-Glo I/II Assay kit)
Type: biochemical
Settings: wells without enzyme = 100% inhibition; for inhibition at 10 µM: read-out: HDAC6 inhibitory rate (%) (10 μM)
Method in brief: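 Full-length GST-purified HDAC6 from Sf-9 cells preincubated with compound 60 min at room temperature in Tris-HCl pH 7.5 buffer with MgCl2, KCl, NaCl, glutathione, Tween-20. Substrate-developer reaction 20 min, luminescence read; no-enzyme wells set as 100% inhibition.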

| Compound | inhibition at 10 µM [%] | further results |
| --- | --- | --- |
| O=C1c2cc(-c3nnc(C(F)F)o3)ccc2CN1[C@H](c1ccc(F)cn1)[C@@H](O)c1cccc(F)n1 (single isomer, unassigned) [Example 67, 6-[5-(difluoromethyl)-1,3,4-oxadiazol-2-yl]-2-[(1R*,2R*)-1-(5-fluoropyridin-2-yl)-2-(6-fluoropyridin-2-yl)-2-hydroxyethyl]-2,3-dihydro-1H-isoindol-1-one] | – | HDAC6 inhibitory rate (%) (10 μM) (10 µM): 99% |
| O=C1c2cc(-c3nnc(C(F)F)o3)ccc2CN1[C@H](c1cccnn1)[C@@H](O)c1ccc(F)c(F)c1 (single isomer, unassigned) [Example 109, 6-[5-(difluoromethyl)-1,3,4-oxadiazol-2-yl]-2-[(1R*,2S*)-2-(3,4-difluorophenyl)-2-hydroxy-1-(pyridazin-3-yl)ethyl]-2,3-dihydro-1H-isoindol-1-one] | – | HDAC6 inhibitory rate (%) (10 μM): 100% |
| O=C1c2cc(-c3nnc(C(F)F)o3)ccc2CN1[C@@H](c1ccccn1)[C@H](O)c1cccc(F)n1 [Example 8, 6-[5-(difluoromethyl)-1,3,4-oxadiazol-2-yl]-2-[(1S,2S)-2-(6-fluoropyridin-2-yl)-2-hydroxy-1-(pyridin-2-yl)ethyl]-2,3-dihydro-1H-isoindol-1-one] | 99 | – |
| O=C1c2cc(-c3nnc(C(F)F)o3)ccc2CN1[C@H](c1ccc(F)cc1)[C@@H](O)c1ccccc1 (single isomer, unassigned) [Example 46, 6-[5-(difluoromethyl)-1,3,4-oxadiazol-2-yl]-2-[(1R*,2S*)-1-(4-fluorophenyl)-2-hydroxy-2-phenylethyl]-2,3-dihydro-1H-isoindol-1-one] | – | HDAC6 inhibitory rate (%) (10 μM): 100% |
| O=C1c2cc(-c3nnc(C(F)F)o3)ccc2CN1[C@H](c1ccccc1)[C@H](O)c1ccccc1 [Example 12, 6-[5-(difluoromethyl)-1,3,4-oxadiazol-2-yl]-2-[(1R,2R)-2-hydroxy-1,2-diphenylethyl]-2,3-dihydro-1H-isoindol-1-one] | 100 | – |
| O=C1c2cc(-c3nnc(C(F)F)o3)ccc2CN1[C@H](c1ccc(F)cc1)[C@@H](O)C1CCOCC1 (racemic) [Example 30, 6-[5-(difluoromethyl)-1,3,4-oxadiazol-2-yl]-2-[(1RS,2SR)-1-(4-fluorophenyl)-2-hydroxy-2-(oxan-4-yl)ethyl]-2,3-dihydro-1H-isoindol-1-one] | 99 | – |
| O=C1c2cc(-c3nnc(C(F)F)o3)ccc2CN1[C@H](c1ccccc1)[C@@H](O)c1ccc(F)cc1 (racemic) [Example 22, 6-[5-(difluoromethyl)-1,3,4-oxadiazol-2-yl]-2-[(1RS,2SR)-2-(4-fluorophenyl)-2-hydroxy-1-phenylethyl]-2,3-dihydro-1H-isoindol-1-one] | 99 | – |
| O=C1c2cc(-c3nnc(C(F)F)o3)ccc2CN1[C@H](c1ccc(F)c(F)c1)[C@@H](O)c1ccccn1 (single isomer, unassigned) [Example 50, 6-[5-(difluoromethyl)-1,3,4-oxadiazol-2-yl]-2-[(1R*,2R*)-1-(3,4-difluorophenyl)-2-hydroxy-2-(pyridin-2-yl)ethyl]-2,3-dihydro-1H-isoindol-1-one] | 99 | – |
| O=C1c2cc(-c3nnc(C(F)F)o3)ccc2CN1[C@H](c1cnccn1)[C@@H](O)c1ccc(Cl)cc1 (single isomer, unassigned) [Example 97, 2-[(1R*,2S*)-2-(4-chlorophenyl)-2-hydroxy-1-(pyrazin-2-yl)ethyl]-6-[5-(difluoromethyl)-1,3,4-oxadiazol-2-yl]-2,3-dihydro-1H-isoindol-1-one] | – | HDAC6 inhibitory rate (%) (10 μM) (10 µM): 99% |
| O=C1c2cc(-c3nnc(C(F)F)o3)ccc2CN1[C@H](c1ncccn1)[C@@H](O)c1cccc(F)c1 (single isomer, unassigned) [Example 69, 6-[5-(difluoromethyl)-1,3,4-oxadiazol-2-yl]-2-[(1R*,2S*)-2-(3-fluorophenyl)-2-hydroxy-1-(pyrimidin-2-yl)ethyl]-2,3-dihydro-1H-isoindol-1-one] | – | HDAC6 inhibitory rate (%) (10 μM) (10 µM): 100% |
| O=C1c2cc(-c3nnc(C(F)F)o3)ccc2CN1[C@H](c1ccc(F)cc1)[C@@H](O)c1cccnc1 (single isomer, unassigned) [Example 52, 6-[5-(difluoromethyl)-1,3,4-oxadiazol-2-yl]-2-[(1R*,2S*)-1-(4-fluorophenyl)-2-hydroxy-2-(pyridin-3-yl)ethyl]-2,3-dihydro-1H-isoindol-1-one] | – | HDAC6 inhibitory rate (%) (10 μM) (10 µM): 100% |
| O=C1c2cc(-c3nnc(C(F)F)o3)ccc2CN1[C@H](c1ccc(F)cn1)[C@@H](O)c1cccc(F)n1 (single isomer, unassigned) [Example 66, 6-[5-(difluoromethyl)-1,3,4-oxadiazol-2-yl]-2-[(1R*,2R*)-1-(5-fluoropyridin-2-yl)-2-(6-fluoropyridin-2-yl)-2-hydroxyethyl]-2,3-dihydro-1H-isoindol-1-one] | 100 | – |
| O=C1c2cc(-c3nnc(C(F)F)o3)ccc2CN1[C@H](c1cccc(F)n1)[C@@H](O)c1cccc(F)n1 (single isomer, unassigned) [Example 118, 2-[(1R*,2R*)-1,2-bis(6-fluoropyridin-2-yl)-2-hydroxyethyl]-6-[5-(difluoromethyl)-1,3,4-oxadiazol-2-yl]-2,3-dihydro-1H-isoindol-1-one] | – | HDAC6 inhibitory rate (%) (10 μM) (10 µM): 102% |
| O=C1c2cc(-c3nnc(C(F)F)o3)ccc2CN1[C@H](c1cnccn1)[C@@H](O)c1ccccc1 (single isomer, unassigned) [Example 128, 6-[5-(difluoromethyl)-1,3,4-oxadiazol-2-yl]-2-[(1R*,2S*)-2-hydroxy-2-phenyl-1-(pyrazin-2-yl)ethyl]-2,3-dihydro-1H-isoindol-1-one] | – | HDAC6 inhibitory rate (%) (10 μM): 99% |

Now from value to compound, other results behind:

| inhibition at 10 µM [%] | Compound | further results |
| --- | --- | --- |
| 100 | O=C1c2cc(-c3nnc(C(F)F)o3)ccc2CN1[C@H](c1ccccc1)[C@H](O)c1ccccc1F (racemic) [Example 139, 6-[5-(difluoromethyl)-1,3,4-oxadiazol-2-yl]-2-[(1RS,2RS)-2-(2-fluorophenyl)-2-hydroxy-1-phenylethyl]-2,3-dihydro-1H-isoindol-1-one] | – |
| 100 | O=C1c2cc(-c3nnc(C(F)F)o3)ccc2CN1[C@H](c1cccc(F)n1)[C@@H](O)c1cccc(F)c1 (single isomer, unassigned) [Example 89, 6-[5-(difluoromethyl)-1,3,4-oxadiazol-2-yl]-2-[(1R*,2S*)-2-(3-fluorophenyl)-1-(6-fluoropyridin-2-yl)-2-hydroxyethyl]-2,3-dihydro-1H-isoindol-1-one] | – |
| 100 | O=C1c2cc(-c3nnc(C(F)F)o3)ccc2CN1[C@H](c1cnccn1)[C@@H](O)c1ccc(Cl)cc1 (single isomer, unassigned) [Example 96, 2-[(1R*,2S*)-2-(4-chlorophenyl)-2-hydroxy-1-(pyrazin-2-yl)ethyl]-6-[5-(difluoromethyl)-1,3,4-oxadiazol-2-yl]-2,3-dihydro-1H-isoindol-1-one] | – |
| 100 | O=C1c2cc(-c3nnc(C(F)F)o3)ccc2CN1[C@H](C1CC1)[C@H](O)c1ccc(F)cc1 [Example 137, 2-[(1R,2R)-1-cyclopropyl-2-(4-fluorophenyl)-2-hydroxyethyl]-6-[5-(difluoromethyl)-1,3,4-oxadiazol-2-yl]-2,3-dihydro-1H-isoindol-1-one] | – |

— patent US12384770B2, “Heterocyclic compound” (Takeda Pharmaceutical Company Limited, priority 2019, dated 2025)
